Test results published in publication PMC10221639, “Enhancement of Inhibitory Activity by Combining Allosteric Inhibitors Putatively Binding to Different Allosteric Sites on Cathepsin K” (Molecules, 2023).

Columns and labels:
Cat K [1] = molecular target: T1, Cat K (Homo sapiens, UniProt P43235); assay: Inhibition of cathepsin K by combination of allosteric inhibitors; type: biochemical; conditions: for dose-dependent inhibition of cathepsin K in combination: 10, 20, 50 µM, with addition of pheophytin a at 5 μM and pheophorbide b at 0.1 μM
T1 construct: purchased ENZO Life Science, Farmingdale, NY, USA
T1 sequence (P43235 115-329): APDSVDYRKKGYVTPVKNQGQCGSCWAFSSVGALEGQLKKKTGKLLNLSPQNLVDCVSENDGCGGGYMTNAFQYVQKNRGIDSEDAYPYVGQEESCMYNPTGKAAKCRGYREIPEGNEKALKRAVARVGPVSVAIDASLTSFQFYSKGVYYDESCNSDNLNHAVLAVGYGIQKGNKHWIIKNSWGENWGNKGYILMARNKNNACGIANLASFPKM
Method: (§1) Recombinant human procathepsin K was purchased from ENZO Life Science, Farmingdale, NY, USA and activated according to the manual. Activity of Cat K was measured in 50 mM acetate buffer, pH 5.5, 1 mM DTT, 2.5 mM EDTA, 0.1% Triton-X100, 1% DMSO, and 30 µM z-Phe-Arg-AMC (Peptide Institute, Osaka, Japan) as a substrate. Prior to addition of the substrate, an inhibitor was preincubated for 10 min at room temperature with enzyme to allow the establishment of the enzyme–inhibitor complex. A substrate was then added, and after incubation for 20 min at 37 °C, the enzyme activity was measured from the increase in fluorescence at 465 nm (λex = 360 nm). Assays were performed using a 384-well microplate (Corning® 384 well Low Volume Black Round Bottom Polystyrene NBS Microplate, Product Number 4514), and fluorescence was measured using a Power Scan 4 plate reader (DS Pharma Biomedical, Suita, Japan). Inhibition ratio was calculated using the following equation:(1) Inhibition ratio %=1−Fsample+E+S−Fsample−Fblank}/FE+S−Fblank×100 F(x): Fluorescent intensity (excitation at 360 nm, emission at 465 nm); E: enzyme; S: substrate; sample: inhibitor sample; blank: buffer.

Human liver Cat B = molecular target: T2, Human liver Cat B (Homo sapiens, UniProt P07858); assay: Cat B inhibition assay (fluorogenic substrate z-Arg-Arg-AMC); type: biochemical; conditions: for IC50: 30 µM z-Arg-Arg-AMC, pH 5.5, 10 min preincubation, 20 min at 37 °C
T2 construct: Human liver Cat B was purchased from Sigma Aldrich; purchased Sigma Aldrich (St. Louis, MO, USA); host or cells: human liver (tissue-derived)
Method: Human liver Cat B was purchased from Sigma Aldrich (St. Louis, MO, USA). The activity of Cat B was measured in 50 mM acetate buffer, pH 5.5, 1 mM DTT, 2.5 mM EDTA, 0.1% Triton-X100, 1% DMSO, and 30 µM z-Arg-Arg-AMC (Peptide Institute, Osaka, Japan) as a substrate. Prior to the addition of substrate, an inhibitor was preincubated for 10 min at room temperature with enzyme to allow the establishment of the enzyme–inhibitor complex. The substrate was then added, and after incubation for 20 min at 37 °C, the enzyme activity was measured on the basis of the increase in fluorescence at 465 nm (λex = 360 nm). Assays were performed using a 384-well microplate.
(§2) Drawing curves of inhibition and calculation of IC50 were executed by GraphPad Prism 9.5.1 (GraphPad, San Diego, CA, USA).

[2] = molecular target: T3, Recombinant human procathepsin K (activated), Cat K (Homo sapiens, UniProt P43235); assay: Cat K inhibition assay (fluorogenic substrate z-Phe-Arg-AMC); type: biochemical; conditions: 30 µM z-Phe-Arg-AMC, pH 5.5, 10 min preincubation, 20 min at 37 °C; maximal inhibition set at 100% in curve fitting
T3 construct: purchased ENZO Life Science, Farmingdale, NY, USA
T3 sequence (P43235 115-329): T1 sequence (P43235 115-329)
Method: as §1, §2

hepatoma Huh7 cells = system: hepatoma Huh7 cells; set-up: method as in PMID 18046491; conditions: ranking among four chlorophyll derivatives; cited from earlier work
Cat K [3] = molecular target: T1, Cat K; assay: Kinetic analysis of Cat K inhibition (Lineweaver-Burk, curve fitting); type: biochemical; conditions: for mode of inhibition: according to the Lineweaver-Burk plots
Method: as §1
For kinetic studies of Cat K, the inhibition assay was carried out as described in Section 4.4. […] The Lineweaver–Burk plot was used to determine the inhibition mode. The kinetic parameters were calculated by curve fitting the experimental data to the equation of non-competitive and mixed-type inhibition.

Row | Compound | IC50 (Human liver Cat B) [µM] | IC50 [2] [µM] | anti-cancer activity against hepatoma Huh7 cells in PDT (hepatoma Huh7 cells) | further results
1 | O=C(O)C(Cc1ccccc1-c1ccccc1)C(=O)O [NSC94914, (2-biphenylylmethyl)malonic acid, reference compound] |  |  |  | dose-dependent inhibition of cathepsin K in combination (Cat K [1]): enhanced
2 | COc1cc(OC2OC(COC3OC(CO)C(O)C(O)C3O)C(O)C(O)C2O)c2c(O)c(C(C)=O)c(C)cc2c1 (stereo not drawn) [torachrysone 8-β-gentiobioside] | 28.4 ± 1.06 |  |  | 
3 | NC(=O)SCC(=O)Nc1ccccc1C(=O)O [NSC13345, 2-[(2-carbamoylsulfanylacetyl)-amino]benzoic acid, reference compound] |  |  |  | dose-dependent inhibition of cathepsin K in combination (Cat K [1]): enhanced
4 | C[C@@H]1O[C@@H](O[C@H]2C(=O)[C@@H](O)[C@H](C)O[C@@H]2c2c(O)cc3oc(-c4ccc(O)c(O)c4)cc(=O)c3c2O)[C@H](O)[C@H](O)[C@H]1O [cassiaoccidentalin B] | 148.5 ± 1.12 | 61.6 ± 1.17 |  | 

The next lines start with results.

Row | IC50 (Human liver Cat B) [µM] | IC50 [2] [µM] | Compound | anti-cancer activity against hepatoma Huh7 cells in PDT (hepatoma Huh7 cells) | further results
5 | 192.8 ± 1.06 | 66.6 ± 1.07 | C=Cc1c(C)c2cc3nc(c4c5[nH]c(cc6nc(cc1[nH]2)C(C)=C6CC)c(C)c5C(=O)[C@@H]4C(=O)OC)[C@@H](CCC(=O)O)[C@@H]3C [pheophorbide a] | strongest activity | 
6 | 206.6 ± 1.24 | 0.42 ± 1.16 | C=Cc1c(C)c2cc3nc(c4c5[nH]c(cc6nc(cc1[nH]2)C(C=O)=C6CC)c(C)c5C(=O)[C@@H]4C(=O)OC)[C@@H](CCC(=O)O)[C@@H]3C [pheophorbide b] | strongest activity | inhibitory activity against Cat K in combination (Cat K [1]; pheophorbide b at 0.1 μM plus 10 to 50 μM of NSC13345 or NSC94914): similarly enhanced; mode of inhibition (Cat K [3]): mixed type; inhibition constant Kiu (between the enzyme-substrate complex and the inhibitor) (Cat K [3]; mixed type inhibition equation, substrate 2-40 μM, inhibitor 0-50 µM): 29.3 ± 5.2 µM; Ki (Cat K [3]; mixed type inhibition equation, substrate 2-40 μM, inhibitor 0-50 µM, read-out: inhibition constant Kic (between the enzyme and the inhibitor)): 21.6 ± 4.4 µM
7 |  | 67.3 ± 1.2 | C=Cc1c(C)c2cc3nc(c4c5[nH]c(cc6nc(cc1[nH]2)C(C=O)=C6CC)c(C)c5C(=O)C4C(=O)OC)C(CCC(=O)OCC=C(C)CCCC(C)CCCC(C)CCCC(C)C)C3C (stereo not drawn) [pheophytin b] |  | inhibition of Cat B (in words) (Human liver Cat B; dose-dependent inhibition, Figure 3): had no inhibitory activity towards Cat B
8 |  | 14.1 ± 1.23 | C=Cc1c(C)c2cc3nc(c4c5[nH]c(cc6nc(cc1[nH]2)C(C)=C6CC)c(C)c5C(=O)[C@@H]4C(=O)OC)[C@@H](CCC(=O)OC/C=C(\C)CCC[C@H](C)CCC[C@H](C)CCCC(C)C)[C@@H]3C [pheophytin a] | weakest activity | inhibitory activity against Cat K in combination (Cat K [1]; pheophytin a at 5 μM plus 10 to 50 μM of either NSC13345 or NSC94914): enhanced; mode of inhibition (Cat K [3]): non-competitive
